Reference: patent US7396837B2, “Antitumoral analogs of lamellarins” (Pharma Mar, S.A.U., priority 2002, dated 2008)
Read-outs that look alike come from different tables or passages of the source.

Columns and labels:
Format in all cases: cell-based
[1] = SRB colorimetric cell growth inhibition assay, H-MEC-1; details: human, H-MEC-1 cells, H-MEC-1; LC=cell killing (cytotoxic effect); read-out: LC50 H-MEC-1
Procedure, shortened: (§1)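 Growth and viability quantified by sulforhodamine B staining in 96-well microplates. Triplicate wells give mean ± SD; derived endpoints are GI, TGI (cytostatic) and LC (cytotoxic).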

H-MEC-1 = experiment: as above; details: Homo sapiens, HMEC-1, H-MEC-1; for GI50: GI=growth inhibition; for IC (TGI): TGI=total growth inhibition (cytostatic effect), read-out: TGI H-MEC-1
Procedure, shortened: as §1

LoVo-Dox = experiment: SRB colorimetric cell growth inhibition assay, LoVo-Dox (MDR); details: Homo sapiens, LOVO-DOX; for GI50: GI=growth inhibition, read-out: GI50 LOVO-DOX; for CC50: read-out: LC50 LOVO-DOX; for IC (TGI): read-out: TGI LOVO-DOX
Procedure, shortened: (§2)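 Quantitation uses the sulforhodamine B reaction on cells exposed to sample for the whole assay period; results (mean ± SD, n = 3 wells) yield GI, TGI and LC.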

IGROV = experiment: SRB colorimetric cell growth inhibition assay, IGROV; details: Homo sapiens, IGROV; for GI50: GI=growth inhibition, read-out: GI50 IGROV; for CC50: LC=cell killing (cytotoxic effect), read-out: LC50 IGROV; for IC (TGI): TGI=total growth inhibition (cytostatic effect), read-out: TGI IGROV
Procedure, shortened: as §2

SKOV-3 = experiment: SRB colorimetric cell growth inhibition assay, SKOV-3; details: Homo sapiens; for GI50: SK-OV-3, SKOV-3, GI=growth inhibition, read-out: GI50 SKOV-3; for CC50 / IC (TGI): SK-OV-3, SKOV-3; for CC50: LC=cell killing (cytotoxic effect), read-out: LC50 SKOV-3; for IC (TGI): TGI=total growth inhibition (cytostatic effect), read-out: TGI SKOV-3
Procedure, shortened: as §1

HT-29 = experiment: SRB colorimetric cell growth inhibition assay, HT-29; details: Homo sapiens, HT-29, HT-29; for GI50: GI=growth inhibition, read-out: GI50 HT-29; for CC50: read-out: LC50 HT-29; for IC (TGI): read-out: TGI HT-29
Procedure, shortened: as §2

LoVo = experiment: SRB colorimetric cell growth inhibition assay, LoVo; details: Homo sapiens, LoVo; for GI50: GI=growth inhibition, read-out: GI50 LOVO; for CC50: read-out: LC50 LOVO; for IC (TGI): read-out: TGI LOVO
Procedure, shortened: as §2

IGROV-ET = experiment: SRB colorimetric cell growth inhibition assay, IGROV-ET (ET-743 resistant); details: Homo sapiens, IGROV-ET; for GI50: GI=growth inhibition, read-out: GI50 IGROV-ET; for CC50: LC=cell killing (cytotoxic effect), read-out: LC50 IGROV-ET; for IC (TGI): TGI=total growth inhibition (cytostatic effect), read-out: TGI IGROV-ET
Procedure, shortened: as §2

DU-145 = experiment: SRB colorimetric cell growth inhibition assay, DU-145; details: Homo sapiens, DU-145, DU-145; for GI50: GI=growth inhibition, read-out: GI50 DU-145; for CC50: LC=cell killing (cytotoxic effect), read-out: LC50 DU-145; for IC (TGI): TGI=total growth inhibition (cytostatic effect), read-out: TGI DU-145
Procedure, shortened: as §2

K-562 = experiment: SRB colorimetric cell growth inhibition assay, K-562; details: Homo sapiens, K562, K-562; for GI50: GI=growth inhibition, read-out: GI50 K-562; for CC50: read-out: LC50 K-562; for IC (TGI): read-out: TGI K-562
Procedure, shortened: as §2

A-549 = experiment: SRB colorimetric cell growth inhibition assay, A-549; details: Homo sapiens, A549, A-549; for GI50: GI=growth inhibition, read-out: GI50 A-549; for CC50: read-out: LC50 A-549; for IC (TGI): read-out: TGI A-549
Procedure, shortened: as §2

PANC-1 = experiment: SRB colorimetric cell growth inhibition assay, PANC-1; details: Homo sapiens, PANC-1, PANC-1; for GI50: GI=growth inhibition, read-out: GI50 PANC-1; for CC50: read-out: LC50 PANC-1; for IC (TGI): read-out: TGI PANC-1
Procedure, shortened: as §2

SK-BR-3 = experiment: SRB colorimetric cell growth inhibition assay, SK-BR-3; details: Homo sapiens, SK-BR-3, SK-BR-3; for GI50: GI=growth inhibition, read-out: GI50 SK-BR-3; for CC50: LC=cell killing (cytotoxic effect), read-out: LC50 SK-BR-3; for IC (TGI): TGI=total growth inhibition (cytostatic effect), read-out: TGI SK-BR-3
Procedure, shortened: as §2

LNCaP = experiment: SRB colorimetric cell growth inhibition assay, LNCaP; details: Homo sapiens, LNCaP, LN-caP
Procedure, shortened: as §2

SK-MEL-28 = experiment: SRB colorimetric cell growth inhibition assay, SK-MEL-28; details: Homo sapiens, SK-MEL-28, MEL-28; for GI50: GI=growth inhibition, read-out: GI50 MEL-28; for CC50: LC=cell killing (cytotoxic effect), read-out: LC50 MEL-28; for IC (TGI): TGI=total growth inhibition (cytostatic effect), read-out: TGI MEL-28
Procedure, shortened: as §2

[2] = LC=cell killing (cytotoxic effect)
[3] = TGI=total growth inhibition (cytostatic effect)
[4] = cell killing (cytotoxic effect)
[5] = total growth inhibition (cytostatic effect)

`COc1cc2c(cc1OC)-c1c(-c3ccc(OS(C)(=O)=O)c(OC)c3)c3c4cc(OC)c(OS(C)(=O)=O)cc4oc(=O)c3n1CC2` [Compound 92] showed a CC50 [1] of 14.9 µM, a GI50 (H-MEC-1) of 14.2 µM and an IC (TGI) (H-MEC-1) of 14.9 µM. For the same compound, the GI50 (LoVo-Dox) was 2.14 µM, the CC50 (LoVo-Dox; [2]) was 14.9 µM and the IC (TGI) (LoVo-Dox; [3]) was 5.96 µM. The GI50 (IGROV) was 3.13 µM, the CC50 (IGROV) was 14.1 µM and the IC (TGI) (IGROV) was 6.64 µM. The GI50 (SKOV-3) was 7.61 µM, the CC50 (SKOV-3) was 14.9 µM and the IC (TGI) (SKOV-3) was 14.9 µM. The GI50 (HT-29) was 14.9 µM, the CC50 (HT-29; [2]) was 14.9 µM and the IC (TGI) (HT-29; [3]) was 14.9 µM. It also gave a GI50 (LoVo) of 7.52 µM, a CC50 (LoVo; [2]) of 14.9 µM and an IC (TGI) (LoVo; [3]) of 14.9 µM. It also gave a GI50 (IGROV-ET) of 6.85 µM, a CC50 (IGROV-ET) of 14.9 µM and an IC (TGI) (IGROV-ET) of 14.9 µM. The GI50 (DU-145) was 14.9 µM, the CC50 (DU-145) was 14.9 µM and the IC (TGI) (DU-145) was 14.9 µM. For the same compound, the GI50 (K-562) was 2.23 µM, the CC50 (K-562; [2]) was 14.9 µM and the IC (TGI) (K-562; [3]) was 13.8 µM. It also gave a GI50 (A-549) of 14.9 µM, a CC50 (A-549; [2]) of 14.9 µM and an IC (TGI) (A-549; [3]) of 14.9 µM. It also gave a GI50 (PANC-1) of 5.42 µM, a CC50 (PANC-1; [2]) of 14.9 µM and an IC (TGI) (PANC-1; [3]) of 14.9 µM. For the same compound, the GI50 (SK-BR-3) was 4.35 µM, the CC50 (SK-BR-3) was 14.9 µM and the IC (TGI) (SK-BR-3) was 11.6 µM. The GI50 (LNCaP; GI=growth inhibition, read-out: GI50 LN-caP) was 0.167 µM, the CC50 (LNCaP; LC=cell killing (cytotoxic effect), read-out: LC50 LN-caP) was 5.09 µM and the IC (TGI) (LNCaP; TGI=total growth inhibition (cytostatic effect), read-out: TGI LN-caP) was 0.71 µM. It also gave a GI50 (SK-MEL-28) of 4.75 µM, a CC50 (SK-MEL-28) of 14.9 µM and an IC (TGI) (SK-MEL-28) of 10.1 µM.
In the case of `COc1cc(-c2c3c4cc(OC)c(OC(=O)[C@H](C)NC(=O)OC(C)(C)C)cc4oc(=O)c3n3ccc4c(OC(=O)[C@H](C)NC(=O)OC(C)(C)C)c(OC)c(OC)cc4c23)ccc1OC(=O)[C@H](C)NC(=O)OC(C)(C)C` [Compound 97], the CC50 [1] is reported as 9.59 µM, the GI50 (H-MEC-1) is reported as 0.0337 µM and the IC (TGI) (H-MEC-1) is reported as 0.0959 µM. For the same compound, the GI50 (LoVo-Dox) was 5.29 µM, the CC50 (LoVo-Dox; [4]) was 9.59 µM and the IC (TGI) (LoVo-Dox; [5]) was 9.59 µM. It also gave a GI50 (IGROV) of 0.186 µM, a CC50 (IGROV) of 7.54 µM and an IC (TGI) (IGROV) of 1.94 µM. The GI50 (SKOV-3) was 6.01 µM, the CC50 (SKOV-3) was 9.59 µM and the IC (TGI) (SKOV-3) was 9.59 µM. The GI50 (HT-29) was 9.59 µM, the CC50 (HT-29; [4]) was 9.59 µM and the IC (TGI) (HT-29; [5]) was 9.59 µM. It also gave a GI50 (LoVo) of 5.28 µM, a CC50 (LoVo; [4]) of 9.59 µM and an IC (TGI) (LoVo; [5]) of 9.59 µM. For the same compound, the GI50 (IGROV-ET) was 0.678 µM, the CC50 (IGROV-ET) was 9.59 µM and the IC (TGI) (IGROV-ET) was 3.33 µM. For the same compound, the GI50 (DU-145) was 4.13 µM, the CC50 (DU-145) was 9.59 µM and the IC (TGI) (DU-145) was 9.59 µM. For the same compound, the GI50 (K-562) was 3.2 µM, the CC50 (K-562; [4]) was 9.59 µM and the IC (TGI) (K-562; [5]) was 6.86 µM. It also gave a GI50 (A-549) of 9.59 µM, a CC50 (A-549; [4]) of 9.59 µM and an IC (TGI) (A-549; [5]) of 9.59 µM. For the same compound, the GI50 (PANC-1) was 4.47 µM, the CC50 (PANC-1; [4]) was 9.59 µM and the IC (TGI) (PANC-1; [5]) was 9.59 µM. It also gave a GI50 (SK-BR-3) of 1.23 µM, a CC50 (SK-BR-3) of 9.59 µM and an IC (TGI) (SK-BR-3) of 3.58 µM. For the same compound, the GI50 (SK-MEL-28) was 0.262 µM, the CC50 (SK-MEL-28) was 9.59 µM and the IC (TGI) (SK-MEL-28) was 4.71 µM.
